Laboratory results published in US10822319B2, “Crystal of DPP-IV long-acting inhibitor and salt” (priority 2016, dated 2020).
Where two headings read alike, the source gives them in different places.

Columns and labels:
[1] = Pharmacokinetics in Beagle dogs; type: in vivo; settings: plasma, 2 mg/kg (in free form); for MRT last: read-out: MRT(0−t); for bioavailability: relative to the compound represented by Formula I, read-out: Relative F %
Procedure: Male Beagle dogs were fasted for about 12 h prior to administration and had free access to water. The dogs were also fasted for 4 hours after administration. Blood samples (0.8 mL) were taken from the forelimb vein of the subject Beagle dogs at 0.25, 0.5, 1, 2, 4, 6, 8, 10, 24, 30, 48, and 72 h after administration. The samples were then placed in EDTA-K2 centrifuge tubes, stored at 4° C., and centrifuged for 10 min at a speed of 4000 rpm at 4° C. within 0.5 h after blood collection to separate plasma. The plasma was stored at […] within 1 h after collecting all the plasma.
300 μL of a solution of an internal standard substance in methanol was added to 50 μL of the plasma sample to be tested and a standard curve sample, respectively. The resulting mixture was mixed uniformly by shaking for 5 min, and centrifuged for 10 min at a speed of 13000 rpm. Then 80 μL of supernatant was taken, and 5 μL of the supernatant was pipetted for LC/MS/MS determination, and the chromatogram was recorded.

[2] = Stability test of the crystal of the compound represented by Formula I; type: physicochemical
From the text: Samples were taken on day 5 or day 10 and tested, respectively, and the results were compared with the initial results.

[3] = male, Beagle, dog, po, 2 mg/kg, crystalline form
[4] = male, Beagle, dog, oral, 2 mg/kg, crystalline form
[5] = male Beagle dogs, crystalline form
[6] = High Humidity (RH92.5%, 25° C.), Day 5
[7] = High Humidity (RH92.5%, 25° C.), Day 10
[8] = Light Irradiation (6000 lux), Day 5
[9] = Light Irradiation (6000 lux), Day 10

## CS(=O)(=O)c1ccc2c(c1)CN([C@H]1CO[C@H](c3cc(F)ccc3F)[C@@H](N)C1)C2 [The compound represented by Formula I, (2R,3S,5R)-5-(5-methanesulfonylisoindolin-2-yl)-2-(2,5-difluorophenyl)tetrahydro-2H-pyran-3-amine]
[1]; [3]
  AUC(0-inf): 15800 ng·h/mL
  AUC(0-t): 15200 ng·h/mL
  half-life: 16.4 h
  MRT last: 20.6 h
[1]; male, Beagle, dog, po, 2 mg/kg, crystalline form, read-out: Cmax
  Cmax: 926 ng/mL
[1]; male, Beagle, dog, po, 2 mg/kg, crystalline form, read-out: Tmax
  Tmax: 6 h
[1]; male, Beagle, dog, po, 2 mg/kg
  bioavailability: 100%

## CS(=O)(=O)c1ccc2c(c1)CN([C@H]1CO[C@H](c3cc(F)ccc3F)[C@@H](N)C1)C2 [fumarate of (2R,3S,5R)-5-(5-methanesulfonylisoindolin-2-yl)-2-(2,5-difluorophenyl)tetrahydro-2H-pyran-3-amine]
[1]; [4]
  AUC(0-inf): 20300 ng·h/mL
  AUC(0-t): 19500 ng·h/mL
  half-life: 16.6 h
  MRT last: 20.3 h
[1]; male, Beagle, dog, oral, 2 mg/kg, crystalline form, read-out: Cmax
  Cmax: 1220 ng/mL
[1]; male, Beagle, dog, oral, 2 mg/kg, crystalline form, read-out: Tmax
  Tmax: 0.75 h
[1]; male, Beagle, dog, oral, 2 mg/kg
  bioavailability: 152%

## CS(=O)(=O)c1ccc2c(c1)CN([C@H]1CO[C@H](c3cc(F)ccc3F)[C@@H](N)C1)C2 [The phosphate of the compound represented by Formula I] [Phosphate of (2R,3S,5R)-5-(5-methanesulfonylisoindolin-2-yl)-2-(2,5-difluorophenyl)tetrahydro-2H-pyran-3-amine]
[1]; [5]
  AUC(0−t): 22746 ng·h/mL
  AUC(0−∞): 23508 ng·h/mL
  Cmax: 1746 ng/mL
  MRT(0−t): 17.9 h
  Tmax: 0.67 h
  t1/2: 16.9 h

## CS(=O)(=O)c1ccc2c(c1)CN([C@H]1CO[C@H](c3cc(F)ccc3F)[C@@H](N)C1)C2 [(2R,3S,5R)-5-(5-methanesulfonylisoindolin-2-yl)-2-(2,5-difluorophenyl)tetrahydro-2H-pyran-3-amine]
[2]; 40° C., Day 5
  Content (%): 99.6%
  Total impurity (%): 0.31%
[2]; 40° C., Day 10
  Content (%): 99.6%
  Total impurity (%): 0.37%
[2]; 60° C., Day 5
  Content (%): 100.2%
  Total impurity (%): 0.30%
[2]; 60° C., Day 10
  Content (%): 99.4%
  Total impurity (%): 0.33%
[2]; Day 0
  Content (%): 99.1%
  Total impurity (%): 0.39%
[2]; [6]
  Content (%): 100.3%
  Total impurity (%): 0.27%
[2]; [7]
  Content (%): 99.9%
  Total impurity (%): 0.32%
[2]; [8]
  Content (%): 99.5%
  Total impurity (%): 0.33%
[2]; [9]
  Content (%): 99.3%
  Total impurity (%): 0.44%
[2]; all conditions and days (Day 0, 40° C., 60° C., high humidity, light irradiation)
  Appearance: Off-white powdered solid
